Laboratory results from ChEMBL document CHEMBL4334438, “Discovery of novel glycogen synthase kinase-3α inhibitors: Structure-based virtual screening, preliminary SAR and biological evaluation for treatment of acute myeloid leukemia” (Eur J Med Chem, 2019).

Assays:
[1] = biological target: CDC7/Cyclin B1 (Homo sapiens) (UniProt P14635+O00311); test: Inhibition of recombinant full length human CDC7/CyclinB1 assessed as residual activity at 1 uM using Histone H1 as substrate incubated for 120 mins in presence of [gamma-33ATP] by scintillation counting based radiometry assay relative to control; assay type: protein-complex assay
[2] = biological target: Bone morphogenetic protein receptor type-1B (Homo sapiens) (UniProt O00238); test: Inhibition of human ALK6 (148 to end residues) assessed as residual activity at 1 uM using casein as substrate incubated for 40 mins in presence of [gamma-33ATP] by scintillation counting based radiometry assay relative to control
[3] = system: TGF-beta receptor type-1 (Homo sapiens), P36897 [T204D]; test: Inhibition of human TGFBR1 T204D mutant (200 to end residues) assessed as residual activity at 1 uM using casein as substrate measured after 40 mins in presence of [gamma33P]ATP by scintillation counting method relative to control
[4] = biological target: Dual specificity tyrosine-phosphorylation-regulated kinase 1B (Homo sapiens) (UniProt Q9Y463); test: Inhibition of recombinant human DYRK1B assessed as residual activity at 1 uM using RRRFRPASPLRGPPK as substrate at 40 mins in presence of [gamma-33ATP] by scintillation counting based radiometry assay relative to control
[5] = biological target: Ephrin type-B receptor 4 (Homo sapiens) (UniProt P54760); test: Inhibition of recombinant human EphB4 (561 to end residues) assessed as residual activity at 1 uM using poly(Glu, Tyr) 4:1 as substrate at 40 mins in presence of [gamma-33ATP] by scintillation counting based radiometry assay relative to control
[6] = biological target: Serine/threonine-protein kinase TAO2 (Homo sapiens) (UniProt Q9UL54); test: Inhibition of human TAO2 (1 to 320 residues) assessed as residual activity at 1 uM using myelin basic protein as substrate measured after 40 mins in presence of [gamma33P]ATP by scintillation counting method relative to control
Serine/threonine-protein kinase TAO2 (Homo sapiens), sequence (Q9UL54 whole entry, the tested form may be a part): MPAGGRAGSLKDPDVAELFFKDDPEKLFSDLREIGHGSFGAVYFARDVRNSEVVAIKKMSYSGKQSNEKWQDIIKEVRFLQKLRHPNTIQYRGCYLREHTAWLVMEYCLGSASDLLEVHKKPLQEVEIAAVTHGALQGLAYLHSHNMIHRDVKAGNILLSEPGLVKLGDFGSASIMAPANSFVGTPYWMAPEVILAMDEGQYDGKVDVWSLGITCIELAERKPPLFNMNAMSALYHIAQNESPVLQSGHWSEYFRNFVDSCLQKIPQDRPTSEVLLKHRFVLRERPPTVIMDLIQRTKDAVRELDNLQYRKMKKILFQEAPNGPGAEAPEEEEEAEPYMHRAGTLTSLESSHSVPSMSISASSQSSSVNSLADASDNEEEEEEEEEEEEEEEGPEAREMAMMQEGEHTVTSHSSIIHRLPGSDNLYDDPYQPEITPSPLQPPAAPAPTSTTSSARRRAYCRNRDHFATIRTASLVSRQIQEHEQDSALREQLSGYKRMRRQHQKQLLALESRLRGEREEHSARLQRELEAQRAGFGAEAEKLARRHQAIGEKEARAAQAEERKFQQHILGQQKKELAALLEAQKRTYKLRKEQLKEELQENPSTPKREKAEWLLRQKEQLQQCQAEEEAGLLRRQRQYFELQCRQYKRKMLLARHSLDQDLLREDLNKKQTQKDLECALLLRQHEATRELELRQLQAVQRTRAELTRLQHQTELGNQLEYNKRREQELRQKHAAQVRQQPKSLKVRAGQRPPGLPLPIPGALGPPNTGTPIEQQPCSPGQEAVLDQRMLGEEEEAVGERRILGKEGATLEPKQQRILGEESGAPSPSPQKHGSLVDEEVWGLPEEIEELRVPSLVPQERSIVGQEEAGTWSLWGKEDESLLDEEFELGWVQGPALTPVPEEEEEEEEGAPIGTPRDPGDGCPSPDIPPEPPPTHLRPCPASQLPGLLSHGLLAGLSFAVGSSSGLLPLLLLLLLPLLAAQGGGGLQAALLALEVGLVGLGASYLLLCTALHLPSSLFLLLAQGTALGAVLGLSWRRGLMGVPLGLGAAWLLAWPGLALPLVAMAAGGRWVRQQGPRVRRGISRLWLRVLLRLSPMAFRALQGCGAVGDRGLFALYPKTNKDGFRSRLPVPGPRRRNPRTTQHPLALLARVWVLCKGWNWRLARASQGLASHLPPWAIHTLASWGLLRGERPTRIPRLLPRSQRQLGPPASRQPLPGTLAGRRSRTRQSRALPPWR

Mus musculus = species: Mus musculus; test: Inhibition of recombinant full-length mouse PI3K p110alpha/p85alpha at 1 uM assessed as residual activity at 1 uM using phosphatidylinositol-4, 5-bisphosphate as substrate measured after 40 mins by HTRF assay
[7] = biological target: G protein-coupled receptor kinase 6 (Homo sapiens) (UniProt P43250); test: Inhibition of recombinant full length human GRK6 assessed as residual activity at 1 uM using casein as substrate at 40 mins in presence of [gamma-33ATP] by scintillation counting based radiometry assay relative to control
G protein-coupled receptor kinase 6 (Homo sapiens), sequence (P43250 whole entry, looked up): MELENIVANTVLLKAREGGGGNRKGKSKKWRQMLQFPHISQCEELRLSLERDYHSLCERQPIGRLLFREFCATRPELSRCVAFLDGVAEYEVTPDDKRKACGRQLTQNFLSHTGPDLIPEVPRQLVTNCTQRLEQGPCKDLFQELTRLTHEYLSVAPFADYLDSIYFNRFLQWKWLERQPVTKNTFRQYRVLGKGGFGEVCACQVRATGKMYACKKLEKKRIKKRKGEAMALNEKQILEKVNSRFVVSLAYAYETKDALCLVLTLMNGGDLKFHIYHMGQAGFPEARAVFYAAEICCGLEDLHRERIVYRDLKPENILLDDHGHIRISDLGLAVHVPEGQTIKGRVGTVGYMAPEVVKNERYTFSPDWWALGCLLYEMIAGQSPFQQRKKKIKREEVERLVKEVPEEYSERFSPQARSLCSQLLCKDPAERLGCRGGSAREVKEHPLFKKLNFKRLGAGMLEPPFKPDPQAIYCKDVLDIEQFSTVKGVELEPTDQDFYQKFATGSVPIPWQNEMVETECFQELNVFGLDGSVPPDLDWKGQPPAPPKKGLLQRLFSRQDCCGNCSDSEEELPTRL

[8] = system: Glycogen synthase kinase-3 alpha (Homo sapiens), P49840 [UNDEFINED MUTATION]; test: Inhibition of human GSK-3alpha S449A mutant (2 to end residues) at 10 uM using phospho GS2 peptide as substrate after 40 mins in presence of [gamma-33ATP] by scintillation counting method relative to control
Glycogen synthase kinase-3 alpha (Homo sapiens), P49840 [UNDEFINED MUTATION], sequence (P49840 whole entry, looked up, stated change not applied): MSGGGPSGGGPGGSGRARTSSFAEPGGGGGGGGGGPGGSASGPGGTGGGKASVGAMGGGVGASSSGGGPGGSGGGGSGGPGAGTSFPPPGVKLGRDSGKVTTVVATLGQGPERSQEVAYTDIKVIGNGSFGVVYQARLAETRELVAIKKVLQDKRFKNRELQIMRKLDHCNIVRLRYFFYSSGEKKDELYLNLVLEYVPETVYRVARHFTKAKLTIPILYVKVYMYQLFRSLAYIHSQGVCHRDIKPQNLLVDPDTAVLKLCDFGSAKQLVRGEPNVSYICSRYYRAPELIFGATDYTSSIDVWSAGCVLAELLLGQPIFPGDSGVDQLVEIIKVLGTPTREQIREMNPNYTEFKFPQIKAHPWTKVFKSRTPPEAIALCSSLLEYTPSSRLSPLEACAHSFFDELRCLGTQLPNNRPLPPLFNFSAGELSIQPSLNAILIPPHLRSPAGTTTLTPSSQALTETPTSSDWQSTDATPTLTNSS

Homo sapiens = species: Homo sapiens; test: Inhibition of human MAPK2 assessed as residual activity at 1 uM relative to control
[9] = biological target: Wee1-like protein kinase 2 (Homo sapiens) (UniProt P0C1S8); test: Inhibition of recombinant full-length human WEE1b at 1 uM assessed as residual activity at 1 uM using LSNLYHQGKFLQTFCGSPLYRRR as substrate measured after 120 mins in presence of [gamma33P]ATP by scintillation counting method relative to control
[10] = system: Phosphorylase b kinase gamma catalytic chain, liver/testis isoform (Homo sapiens), P15735 [F290L]; test: Inhibition of recombinant human PhKgamma2 F290L mutant (1 to 301 residues) assessed as residual activity at 1 uM using KKLNRTLSFAEPG as substrate measured after 40 mins in presence of [gamma33P]ATP by scintillation counting method relative to control
Phosphorylase b kinase gamma catalytic chain, liver/testis isoform (Homo sapiens), P15735 [F290L], sequence (P15735 whole entry F290L, the tested form may be a part, canonical isoform): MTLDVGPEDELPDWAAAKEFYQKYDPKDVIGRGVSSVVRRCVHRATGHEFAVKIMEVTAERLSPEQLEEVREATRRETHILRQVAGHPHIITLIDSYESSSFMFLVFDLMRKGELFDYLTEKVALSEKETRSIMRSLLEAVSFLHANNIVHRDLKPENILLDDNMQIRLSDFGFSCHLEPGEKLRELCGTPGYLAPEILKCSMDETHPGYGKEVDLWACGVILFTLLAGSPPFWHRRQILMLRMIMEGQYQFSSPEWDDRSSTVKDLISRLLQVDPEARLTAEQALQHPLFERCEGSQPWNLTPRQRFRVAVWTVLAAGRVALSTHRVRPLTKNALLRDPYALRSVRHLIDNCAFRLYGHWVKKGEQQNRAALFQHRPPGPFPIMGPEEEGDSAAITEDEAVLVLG

[11] = biological target: T1, cGMP-dependent protein kinase 1 (Homo sapiens) (UniProt Q13976); test: Inhibition of recombinant full-length human PKG1alpha assessed as residual activity at 1 uM using RRRLSFAEPG as substrate measured after 40 mins in presence of [gamma33P]ATP by scintillation counting method relative to control
T1 sequence (whole entry): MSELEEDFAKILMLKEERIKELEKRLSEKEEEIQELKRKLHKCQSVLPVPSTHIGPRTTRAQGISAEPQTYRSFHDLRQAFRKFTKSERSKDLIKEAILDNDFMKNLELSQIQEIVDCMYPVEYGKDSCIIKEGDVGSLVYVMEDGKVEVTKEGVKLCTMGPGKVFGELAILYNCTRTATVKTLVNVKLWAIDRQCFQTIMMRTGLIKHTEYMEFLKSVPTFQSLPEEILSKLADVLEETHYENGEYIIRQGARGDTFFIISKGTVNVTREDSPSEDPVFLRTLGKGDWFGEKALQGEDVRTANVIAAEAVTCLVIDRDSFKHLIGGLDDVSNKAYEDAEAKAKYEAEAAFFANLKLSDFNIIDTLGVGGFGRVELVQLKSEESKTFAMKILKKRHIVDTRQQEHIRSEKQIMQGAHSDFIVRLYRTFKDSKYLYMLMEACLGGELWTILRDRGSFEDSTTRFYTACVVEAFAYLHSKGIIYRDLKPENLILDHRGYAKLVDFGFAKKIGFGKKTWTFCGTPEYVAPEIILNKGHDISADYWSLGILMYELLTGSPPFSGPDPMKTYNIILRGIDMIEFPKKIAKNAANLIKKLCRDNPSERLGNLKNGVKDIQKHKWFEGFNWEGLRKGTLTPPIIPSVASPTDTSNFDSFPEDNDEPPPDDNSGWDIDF

[12] = system: Serine/threonine-protein kinase Chk2 (Homo sapiens), O96017 [R145W]; test: Inhibition of recombinant human CHK2 R145W mutant (5 to end residues) assessed as residual activity at 1 uM using KKKVSRSGLYRSPSMPENLNRPR as substrate incubated for 40 mins in presence of [gamma-33ATP] by scintillation counting based radiometry assay relative to control
Serine/threonine-protein kinase Chk2 (Homo sapiens), O96017 [R145W], sequence (O96017 whole entry R145W): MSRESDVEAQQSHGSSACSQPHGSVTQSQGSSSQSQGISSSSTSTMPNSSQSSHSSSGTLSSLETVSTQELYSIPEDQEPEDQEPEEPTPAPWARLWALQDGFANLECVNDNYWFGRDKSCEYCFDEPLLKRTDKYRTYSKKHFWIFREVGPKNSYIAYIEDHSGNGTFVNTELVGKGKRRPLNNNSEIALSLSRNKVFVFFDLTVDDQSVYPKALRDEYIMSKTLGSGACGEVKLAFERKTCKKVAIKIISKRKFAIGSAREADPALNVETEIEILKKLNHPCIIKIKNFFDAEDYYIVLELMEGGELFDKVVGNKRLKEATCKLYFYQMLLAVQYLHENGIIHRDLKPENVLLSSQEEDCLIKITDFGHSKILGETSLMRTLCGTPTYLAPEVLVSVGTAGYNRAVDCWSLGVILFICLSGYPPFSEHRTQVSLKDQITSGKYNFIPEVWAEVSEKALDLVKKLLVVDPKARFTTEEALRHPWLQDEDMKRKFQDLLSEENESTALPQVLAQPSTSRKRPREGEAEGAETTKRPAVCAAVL

[13] = biological target: Calcium/calmodulin-dependent protein kinase type IV (Homo sapiens) (UniProt Q16566); test: Inhibition of recombinant full length human CaMK4 assessed as residual activity at 1 uM […] incubated for 40 mins in presence of [gamma-33ATP] by scintillation counting based radiometry assay relative to control
Calcium/calmodulin-dependent protein kinase type IV (Homo sapiens), sequence (Q16566 whole entry): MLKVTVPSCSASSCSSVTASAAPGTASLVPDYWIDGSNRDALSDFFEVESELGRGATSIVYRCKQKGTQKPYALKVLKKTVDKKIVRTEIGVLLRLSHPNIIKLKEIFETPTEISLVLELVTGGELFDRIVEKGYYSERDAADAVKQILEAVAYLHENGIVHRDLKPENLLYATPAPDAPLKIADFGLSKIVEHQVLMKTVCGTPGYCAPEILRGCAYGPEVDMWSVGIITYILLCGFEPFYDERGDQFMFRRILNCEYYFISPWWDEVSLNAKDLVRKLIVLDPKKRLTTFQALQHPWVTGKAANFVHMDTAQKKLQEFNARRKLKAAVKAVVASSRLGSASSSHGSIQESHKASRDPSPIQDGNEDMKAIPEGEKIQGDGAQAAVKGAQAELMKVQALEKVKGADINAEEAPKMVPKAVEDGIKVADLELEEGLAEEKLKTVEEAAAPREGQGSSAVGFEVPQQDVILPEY

[14] = biological target: Serine/threonine-protein kinase Chk2 (Homo sapiens) (UniProt O96017); test: Inhibition of recombinant human CHK2 (5 to end residues) assessed as residual activity at 1 uM using KKKVSRSGLYRSPSMPENLNRPR as substrate incubated for 40 mins in presence of [gamma-33ATP] by scintillation counting based radiometry assay relative to control
Serine/threonine-protein kinase Chk2 (Homo sapiens), sequence (O96017 whole entry, the tested form may be a part): as the sequence (O96017 whole entry R145W) above, with W145R counted along it

[15] = biological target: Mitogen-activated protein kinase kinase kinase kinase 3 (Homo sapiens) (UniProt Q8IVH8); test: Inhibition of recombinant human MAP4K3 (1 to 291 residues) assessed as residual activity at 1 uM using RLGRDKYKTLRQIRQ as substrate incubated for 40 mins in presence of [gamma-33ATP by scintillation counting based radiometry assay relative to control
Mitogen-activated protein kinase kinase kinase kinase 3 (Homo sapiens), sequence (Q8IVH8 whole entry, the tested form may be a part): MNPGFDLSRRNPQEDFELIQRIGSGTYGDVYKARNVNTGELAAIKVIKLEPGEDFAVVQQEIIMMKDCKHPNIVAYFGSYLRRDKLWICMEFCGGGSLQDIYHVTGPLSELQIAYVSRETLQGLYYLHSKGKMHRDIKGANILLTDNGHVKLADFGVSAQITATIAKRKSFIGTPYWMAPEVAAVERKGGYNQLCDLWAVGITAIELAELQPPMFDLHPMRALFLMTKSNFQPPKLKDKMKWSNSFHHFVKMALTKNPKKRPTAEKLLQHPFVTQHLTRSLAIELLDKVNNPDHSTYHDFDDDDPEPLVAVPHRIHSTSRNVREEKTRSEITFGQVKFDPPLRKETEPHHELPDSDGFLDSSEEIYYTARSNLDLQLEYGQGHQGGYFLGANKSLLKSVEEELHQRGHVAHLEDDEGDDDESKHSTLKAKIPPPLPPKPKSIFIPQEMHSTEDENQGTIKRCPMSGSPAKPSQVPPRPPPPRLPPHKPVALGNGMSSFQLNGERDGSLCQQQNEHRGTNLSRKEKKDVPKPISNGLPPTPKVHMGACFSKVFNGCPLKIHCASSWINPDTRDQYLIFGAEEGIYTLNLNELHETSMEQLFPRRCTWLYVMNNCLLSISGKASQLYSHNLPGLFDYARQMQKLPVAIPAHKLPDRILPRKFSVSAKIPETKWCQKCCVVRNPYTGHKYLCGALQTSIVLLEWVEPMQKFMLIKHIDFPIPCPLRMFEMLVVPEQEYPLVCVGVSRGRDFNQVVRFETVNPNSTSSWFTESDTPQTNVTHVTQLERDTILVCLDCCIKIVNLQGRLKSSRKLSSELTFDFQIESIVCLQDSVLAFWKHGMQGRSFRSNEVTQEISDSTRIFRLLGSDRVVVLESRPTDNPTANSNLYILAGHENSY

| SMILES | Activity [1] [%] | Activity [2] [%] | Activity [3] [%] | Activity [4] [%] | Activity [5] [%] | Activity [6] [%] | Activity (Mus musculus) [%] | Activity [7] [%] | inhibition [8] [%] | Activity (Homo sapiens) [%] | Activity [9] [%] | Activity [10] [%] | Activity [11] [%] | Activity [12] [%] | Activity [13] [%] | Activity [14] [%] | Activity [15] [%] |
| --- | --- | --- | --- | --- | --- | --- | --- | --- | --- | --- | --- | --- | --- | --- | --- | --- | --- |
| C=CCOC(=O)c1cc(-c2ccc(/C=C3/NC(=S)NC3=O)o2)ccc1Cl | 93 | 90 | 92 | 88 | 94 | 100 | 93 | 104 | 93 | 99 | 93 | 104 | 93 | 91 | 95 | 92 | 99 |
| N=C1NC(=O)/C(=C\c2ccc(-c3cccc([N+](=O)[O-])c3)o2)S1 | 82 | 103 | 111 | 80 | 93 | 79 | 97 | 102 | 96 | 103 | 106 | 107 | 71 | 99 | 87 | 94 | 102 |
